Experimental findings from patent publication EP1683514B1, “Process for the preparation of concentrated suspensions of drugs and kit thereof” (Eratech S.r.l., priority 2005, dated 2006) are described below.

Data set [1] is described as follows: Particle size distribution of the micronized powder. Format: physicochemical. How it is done:
Micronized Beclomethasone Dipropionate (BDP) powder was added slowly under stirring the solution so obtained. The micronized powder had the following particle size distribution: d(0.1) 0.44 µm, d(0.5) 1.13 µm e d(0.9) 2.42 µm.
Micronized Budesonide powder was added slowly under stirring the solution so obtained. The micronized powder had the following particle size distribution: d(0.1) 0.50 µm, d(0.5) 1.39µm; d(0.9) 3.15 µm.
180 mg of BDP micronized powder were added to the solution so prepared. PSD of the powder was: d(0.1) 0.44 µm, d(0.5) 1.13 µm e d(0.9) 2.42 µm, namely the same PSD of the BDP powder used to prepare the concentrated suspensions of examples 1 - 4.

Data set [2] in a line: Purity test after β or γ irradiation (degradation of the pharmaceutical substance). Format: physicochemical. The following applies: powder. How it is done: A test of microbial count was then carried out on the irradiated suspensions to determine if a satisfactory sterility was achieved. A purity test was also carried out to determine if any degradation of the pharmaceutical substance budesonide was provoked by the irradiation treatment. As a comparison, a test of microbial count and purity was carrier out also on a sample of micronized budesonide powder. A test of microbial count was then carried out on the irradiated suspensions to determine if a satisfactory sterility was achieved. A purity test was also carried out to determine if any degradation of the pharmaceutical substance BDP was provoked by the irradiation treatment. As a comparison, a test of microbial count and purity was carrier out also on a sample of micronized BDP powder.

With `CCC(=O)OCC(=O)[C@@]1(OC(=O)CC)[C@@H](C)C[C@H]2[C@@H]3CCC4=CC(=O)C=C[C@]4(C)[C@@]3(Cl)[C@@H](O)C[C@@]21C` [BDP Powder, Beclomethasone Dipropionate], the “particle size distribution d(0.1)” value in data set [1] is on record as 0.44 µm. Further, in data set [1], the “particle size distribution d(0.5)” value came to 1.13 µm. The “particle size distribution d(0.9)” value in data set [1] is reported as 2.42 µm. The Purity turned out to be 99.73% in data set [2] (BETA IRRADIATION 0 KGy); 99.73% in data set [2] (BETA IRRADIATION 2 KGy); 99.66% in data set [2] (BETA IRRADIATION 4 KGy); 99.67% in data set [2] (BETA IRRADIATION 6 KGy); 99.51% in data set [2] (BETA IRRADIATION 8 KGy); 99.49% in data set [2] (BETA IRRADIATION 10 KGy). The Purity in data set [2] (GAMMA IRRADIATION 0 KGy) is given as 99.73%; in data set [2] (GAMMA IRRADIATION 2 KGy) it was 99.73%; in data set [2] (GAMMA IRRADIATION 4 KGy), 99.68%; in data set [2] (GAMMA IRRADIATION 6 KGy), 99.70%; in data set [2] (GAMMA IRRADIATION 8 KGy), 99.07%.
